Measurements as given in patent publication US8158579B2, “Fusion protein of an exendin to modified transferrin” (BioRexis Pharmaceutical Corporation, priority 2006, dated 2012).
“And” between values parts separate entries of the source, which are not always exact repeats. Equal values may be shown once. Read-outs that look alike come from different tables or passages of the source.

Key:
human GLP-1 receptor = molecular target: T1, human GLP-1 receptor (Homo sapiens, UniProt P43220); test: cell-based cAMP assay in CHO cells expressing the human GLP-1 receptor (FIG. 4)
T1 construct: expressed in transfected cells; host or cells: CHO
T1 sequence (P43220 24-463): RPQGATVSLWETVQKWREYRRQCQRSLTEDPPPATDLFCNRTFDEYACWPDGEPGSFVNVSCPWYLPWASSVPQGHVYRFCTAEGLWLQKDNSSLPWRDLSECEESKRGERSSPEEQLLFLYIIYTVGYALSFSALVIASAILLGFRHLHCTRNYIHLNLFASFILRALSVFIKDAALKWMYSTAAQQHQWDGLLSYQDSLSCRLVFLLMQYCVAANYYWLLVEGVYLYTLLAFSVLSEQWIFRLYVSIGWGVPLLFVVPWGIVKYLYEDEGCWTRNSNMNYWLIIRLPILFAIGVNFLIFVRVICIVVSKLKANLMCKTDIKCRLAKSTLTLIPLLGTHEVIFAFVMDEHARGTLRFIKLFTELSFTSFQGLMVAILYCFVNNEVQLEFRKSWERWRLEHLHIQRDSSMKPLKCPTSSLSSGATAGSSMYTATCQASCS

[1] = molecular target: T2, matrix metalloprotease I (MMP-1, collagenase) (Homo sapiens, UniProt P03956); assay type: in vitro ADME
T2 sequence (P03956 100-469): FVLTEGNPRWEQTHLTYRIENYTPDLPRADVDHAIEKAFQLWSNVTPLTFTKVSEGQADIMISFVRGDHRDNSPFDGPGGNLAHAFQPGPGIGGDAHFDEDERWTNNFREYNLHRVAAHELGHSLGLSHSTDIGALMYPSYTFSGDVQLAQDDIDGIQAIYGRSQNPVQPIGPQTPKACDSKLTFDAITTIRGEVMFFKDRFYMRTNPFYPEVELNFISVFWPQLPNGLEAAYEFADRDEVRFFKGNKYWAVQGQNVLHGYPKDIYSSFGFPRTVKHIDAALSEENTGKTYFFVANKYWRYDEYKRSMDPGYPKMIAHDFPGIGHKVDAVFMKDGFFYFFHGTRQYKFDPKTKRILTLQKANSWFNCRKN
Source text: This difference in degradation occurs despite the close similarity in amino acid sequence in the active portion of the molecules.

Sprague Dawley rats = test: rat body weight, daily subcutaneous injections; assay type: in vivo
Source text: The rats were weighed everyday (prior to dosing on dosing days). Animals had full access to food and water at all times.
By day five, the animals treated with 100 nmole/kg doses lost an average of 75 grams (17%) body weight compared to controls, and the weight loss is related to a drop in food and water intake. Because of the dramatic and acute weight loss observed, daily administration of the drug was stopped at day five. After the 5 day administration period, all animals gained weight at a similar rate.

diabetic mice (db/db) = test: blood glucose in db/db mice after inhalation of aerosolized fusion protein; assay type: in vivo; conditions: inhalation exposure equivalent to 0.3, 1 and 3 mg/kg
Source text: (§1) Aerosols were generated with an Aerotech II compressed air jet nebulizer (CIS-US Inc., Bedford, Mass.) and directed through a 1.58 cm diameter stainless steel aerosol delivery line into a 24-port flow past rodent exposure system (IN-TOX, ABQ, NM). The exhaust flow rate out of the chamber was ˜11.5 L/min. The nebulizer pressure was maintained at ˜30 psi.

mice = test: body weight in mice after a single dose; assay type: in vivo; conditions: for average drop in body weight: twenty-four hours after administration
Source text: Such a dose can also be administered once per two weeks or once per month.

[2] = cynomolgus monkey, in vivo, 1 mg/kg
[3] = mouse, in vivo, inhaled or intranasal
Description: The inhalation time in the chamber was chosen so that the animals would receive an exposure equivalent to the 0.3, 1 and 3 mg/kg dose administered subcutaneously. As a control, these doses were administered subcutaneously (SC) to compare in vivo activity to the inhaled route of administration.

Diabetic (db/db) mice = test: blood glucose in diabetic (db/db) mice after subcutaneous injection; assay type: in vivo
rat GLP-1 receptor = molecular target: T3, rat GLP-1 receptor (Rattus norvegicus, UniProt P32301); test: cAMP potency assay in CHO cells transfected with the rat GLP-1 receptor (CHO-GLP-1R); assay type: cell-based
T3 construct: expressed in transfected cells; host or cells: CHO (CHO-GLP-1R)
T3 sequence (P32301 22-463): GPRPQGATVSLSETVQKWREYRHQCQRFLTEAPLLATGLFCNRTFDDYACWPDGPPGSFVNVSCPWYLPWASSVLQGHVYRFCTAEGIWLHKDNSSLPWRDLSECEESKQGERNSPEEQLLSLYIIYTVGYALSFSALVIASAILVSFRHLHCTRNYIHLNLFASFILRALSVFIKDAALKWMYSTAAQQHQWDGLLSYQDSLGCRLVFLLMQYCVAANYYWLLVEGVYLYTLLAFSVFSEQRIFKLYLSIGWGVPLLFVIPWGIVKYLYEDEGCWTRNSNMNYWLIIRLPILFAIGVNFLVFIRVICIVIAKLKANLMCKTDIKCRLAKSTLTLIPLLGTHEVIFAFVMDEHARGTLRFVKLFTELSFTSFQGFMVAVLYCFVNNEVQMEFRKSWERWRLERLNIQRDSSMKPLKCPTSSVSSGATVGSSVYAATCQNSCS
Description: 96-well tissue culture plates were seeded with CHO-GLP-1R cells and cultured overnight. The following day, the cells were rinsed with Krebs-Ringer buffer (KRB) and incubated in KRB containing the phosphodiesterase inhibitor 3-isobutyl-1-methylxanthine (IBMX, 2 mM) to inhibit intracellular enzymes that process cAMP. Serial dilutions of test compounds and controls were prepared in KRB/IBMX and triplicate wells of cells were inoculated with samples and controls. After incubation, individual sample lysates were then assayed to measure the increase in intracellular cAMP levels using a competition-based fluorescent immunoassay (CatchPoint® cAMP Fluorescent Assay Kit, Molecular Devices Corp., Sunnyvale, Calif.).

[4] = effect of aerosolization on integrity and activity of the fusion protein; assay type: physicochemical
Source text: as §1

Question: Which EC50 (human GLP-1 receptor; cell-based cAMP assay, FIG. 4) does the source give for “exendin-4(1-39) (PEAPTD)2 (SEQ ID NO: 5) mTf fusion protein: exendin-4(1-39) (SEQ ID NO: 4) linked via linker (PEAPTD)2 to modified transferrin mTf (SEQ ID NO: 17); sequence SEQ ID NO: 23” here?
Answer: 0.0313 nM

Question: What about the “potency relative to exendin-4 (fold less potent)” value (human GLP-1 receptor; in vitro, CHO cells expressing the human GLP-1 receptor) of the same substance?
Answer: approximately 5 fold

Question: And the “resistance to inactivation by MMP-1” value [1]?
Answer: resistant to inactivation by MMP-1

Question: What about the body weight loss (Sprague Dawley rats; 100 nmole/kg daily administration, rats) of the same substance?
Answer: 17% and 16%

Question: What about the “average body weight loss compared to controls” value (Sprague Dawley rats; 100 nmole/kg daily, by day five) of the same substance?
Answer: 75 grams

Question: What about the body weight change (Sprague Dawley rats; 10 and 100 nmole/kg doses) of the same substance?
Answer: lost weight after the first injection

Question: What about the “body weight versus control animals after end of dosing” value (Sprague Dawley rats; 20 days following the last administration) of the same substance?
Answer: still weighed less than the control animals

Question: What about the “blood glucose levels after inhalation” value (diabetic mice (db/db)) of the same substance?
Answer: significant drop

Question: And the “dose correlated with a reduction in animal body weight” value (mice; mice and rats)?
Answer: ≥ 10 nmol/kg

Question: What about the “average drop in body weight” value (mice; single dose 10 nmole/kg) of the same substance?
Answer: 6%

Question: And the “average drop in body weight” value (mice; single dose 100 nmole/kg)?
Answer: 14%

Question: And the Vz ([2]; iv)?
Answer: 0.0659 ± 0.031 L/kg

Question: What about the λ z ([2]; iv) of the same substance?
Answer: 0.0313 ± 0.0137 h − 1

Question: And the F ([2]; sc)?
Answer: 49.0%

Question: And the λ z ([2]; sc)?
Answer: 0.0252 ± 0.0084 h − 1

Question: What about the bioavailability [3] of the same substance?
Answer: approximately 10%

Question: What about the “time the almost normalized glucose level persisted” value (Diabetic (db/db) mice; all treatment groups) of the same substance?
Answer: 24 h

Question: And the “dose that significantly reduced blood glucose” value (Diabetic (db/db) mice; by 3 hours after subcutaneous injection)?
Answer: ≤ 1.3 nmol/kg

Question: And the “effect on blood glucose compared with equivalent doses of the GLP-1(7-37,A8G,K34A) (PEAPTD)2 mTf fusion protein” value (Diabetic (db/db) mice; equivalent doses)?
Answer: significantly greater and of a longer duration

Question: What about the “time at which glucose concentrations returned to pretreatment levels” value (Diabetic (db/db) mice; post-treatment, depending on the dose) of the same substance?
Answer: 48 to 72 h

Question: What about the “reduction in blood glucose” value (Diabetic (db/db) mice; reduction seen in db/db mice) of the same substance?
Answer: approximately 70%

Question: And the EC50 (rat GLP-1 receptor; cAMP accumulation in CHO-GLP-1R cells)?
Answer: 0.16 nM

Question: What about the “potency relative to the GLP-1(7-37,A8G,K34A) (PEAPTD)2 mTf fusion protein” value (rat GLP-1 receptor; in vitro activation of the GLP-1 receptor) of the same substance?
Answer: four-eight fold more potent

Question: And the “effect of aerosolization on structure” value ([4]; 10 mg/mL in 10 mM histidine pH 7.4, 100 mM NaCl, nebulized, SDS-PAGE and SEC-HPLC)?
Answer: no detectable adverse effect on the structure

Question: What about the “biological activity of material recovered after aerosolization” value ([4]; condensed liquid from the aerosol) of the same substance?
Answer: biologically active
